These results are taken from patent US4151279A (priority 1978, dated 1979).

Common to all, as to assay type: in vivo
Experiment [1] relates to Alternaria solani. Kind of experiment: Tomato Early Blight control (sprayed tomato seedlings). The conditions noted are these: 288 h, 250-ppm solution, tomato (cultivar Bonny Best) seedlings, inoculated one day later, about 12 days, relative to untreated check plants. The protocol:
Compounds of the invention were tested for the control of the Tomato Early Blight organism, Alternaria solani. Tomato (cultivar Bonny Best) seedlings of 6 to 7 weeks old were used. The tomato plants were sprayed with a 250-ppm solution of the test compound in an acetone-and-water solution containing a small amount of a non-ionic emulsifier. The sprayed plants were inoculated one day later with the organism, dried and maintained at 60-80% relative humidity for about 12 days. Percent disease control was based on the percent disease development on untreated check plants.

Experiment [2] deals with Ersiphe polygoni. Kind of experiment: Powdery Mildew control (sprayed bean seedlings). The conditions noted are these: 250-ppm solution; bean seedlings (cultivar Bountiful); inoculated one day after spray; about 10 days; relative to untreated check plants. The protocol: The powdery mildew test was made using bean seedlings (cultivar Bountiful) with well-developed primary leaves. The pathogen was Ersiphe polygoni. The bean seedlings were sprayed with a 250-ppm solution of the test compound in an acetone-water mixture containing a non-ionic emulsifier. The treated plants were inoculated one day after spray application of the test compound with the pathogen. The plants were then maintained in a greenhouse at 60-80% relative humidity and at a temperature of 20°-22° C. The rate of infection on the leaves were checked after about 10 days. The percent disease control provided by a given test compound was based on the disease reduction relative to untreated check plants.

Experiment [3] relates to Plasmopara viticola. Kind of experiment: Preventive Grape Downy Mildew control (detached grape leaves). The conditions noted are these: detached Vitis vinifera cultivar Emperor leaves, seven to nine days after inoculation. The protocol: Compounds Nos. 1, 4, 13 and 19 were tested for the control of the grape downy mildew organism Plasmopara viticola. Detached leaves, between 70 and 85 mm in diameter, of 7-week-old Vitis vinifera cultivar Emperor grape seedlings were used as hosts. The leaves were sprayed with a solution of the test compound in acetone. The sprayed leaves were dried, inoculated with a spore suspension of the organism, placed in a humid environmental chamber and incubated at 18°-22° C. and about 100% relative humidity. Seven to nine days after inoculation, the amount of disease control was determined. The percent disease control provided by a given test compound was based on the percent disease reduction relative to untreated check plants.

Experiment [4] has as its system Botrytis cinerea. Kind of experiment: Botrytis cinerea control (preventive, harvested grape berries). The settings on record: 250-ppm solution; grape berries (cultivar Emperor); inoculated approximately one day later; 6-9 days after inoculation; relative to non-treated check. How it is done:
Compounds Nos. 1, 8 and 11 were tested as preventive fungicides against Botrytis cinerea on harvested mature grape berries (cultivar Emperor) by the following procedure: 4 grape bunches (trimmed to approximately 50 berries) were sprayed with a 250-ppm solution of the test compound in a solution of water, acetone and a small amount of a non-ionic emulsifier. The sprayed grapes were inoculated approximately one day later with 2- to 3-week-old spores of Botrytis cinerea grown on potato dextrose agar plants. The rate of disease incidence was determined 6-9 days after inoculation, when disease symptoms are fully evident on non-treated check grapes. Infection is determined by actual count of the number of infected berries. The percent disease control provided by a test compound was calculated from the percentage disease reduction based on the non-treated check plants.

Experiment [5] has as its system Phytophthora infestans. Kind of experiment: whole plant or invertebrate. The conditions noted are these: in Solanum lycopersicum, 168 h, read-out: % Control.
In experiment [6] the test system is Septoria apii. The conditions noted are these: celery (Utah) plants 11 weeks old; approximately 14 days; concentration not given; relative to untreated check plants.

For the compound `CC1(C)OC(=O)CC(C(Cl)(Cl)Cl)N1OC(=O)Nc1ccccc1` (stereo not shown) [Compound 1], the pest or weed control at 250 µg/mL in experiment [1] came to 21%. Also, the “% Control” value in experiment [2] is recorded as 91%; in experiment [3] (250 ppm), 23%; in experiment [4], 23%.

`CC1(C)OC(=O)CC(C(Cl)(Cl)Cl)N1OC(=O)Nc1ccccc1F` (stereo not shown) [Compound 2] returned a pest or weed control at 250 µg/mL in experiment [1] of 21%. Further, the “% Control” value in experiment [2] was found to be 75%.

For the compound `CC1(C)OC(=O)CC(C(Cl)(Cl)Cl)N1OC(=O)Nc1ccc(Cl)c(Cl)c1` (stereo not shown) [Compound 4], the pest or weed control at 250 µg/mL in experiment [5] was found to be 96%. For the same compound, the “% Control” value in experiment [3] (100 ppm) is 60%.

For the compound `O=C1CC(C(Cl)(Cl)Cl)N(OC(=O)Nc2ccc(Cl)c(Cl)c2)C2(CCCCC2)O1` (stereo not shown) [Compound 5], the pest or weed control at 250 µg/mL in experiment [5] was 56%.

Turning to `CC1(C)OC(=O)C(Cl)(Cl)C(C(Cl)(Cl)Cl)N1OC(=O)Nc1ccc(Cl)c(Cl)c1` (stereo not shown) [Compound 7], the pest or weed control at 250 µg/mL was 18% in experiment [1] and 21% in experiment [5].

For `CC1(c2ccccc2)OC(=O)C(Cl)(Cl)C(C(Cl)(Cl)Cl)N1OC(=O)Nc1ccccc1` (stereo not shown) [Compound 8, N-(phenylcarbamyloxy)-2-methyl-2-phenyl-4-trichloromethyl-5,5-dichloro-6-oxotetrahydro-1,3-oxazine], the “% Control” value in experiment [6] stood at 61%; in experiment [4] it was 100%. In addition, the pest or weed control at 250 µg/mL in experiment [1] came out at 84%; in experiment [5] it was 97%.

As to `CC1(c2ccccc2)OC(=O)C(Cl)(Cl)C(C(Cl)(Cl)Cl)N1OC(=O)Nc1ccc(Cl)c(Cl)c1` (stereo not shown) [Compound 9], in experiment [5], the pest or weed control at 250 µg/mL was determined as 89%.

As to `CC1(C)OC(=O)C(Cl)(Cl)C(C(Cl)(Cl)Cl)N1OC(=O)Nc1cccc(Cl)c1` (stereo not shown) [Compound 10], the pest or weed control at 250 µg/mL in experiment [1] amounted to 84%; in experiment [5] it was 68%.

Turning to `O=C(Nc1ccc(Cl)cc1)ON1C(C(Cl)(Cl)Cl)C(Cl)(Cl)C(=O)OC12CCCC2` (stereo not shown) [Compound 11], the “% Control” value in experiment [6] stood at 42%; in experiment [4] it was 78%. In addition, the pest or weed control at 250 µg/mL in experiment [1] is 84%; in experiment [5], 94%.

With `O=C(Nc1cccc(Cl)c1)ON1C(C(Cl)(Cl)Cl)C(Cl)(Cl)C(=O)OC12CCCC2` (stereo not shown) [Compound 12], the pest or weed control at 250 µg/mL was determined as 33% in experiment [1] and 68% in experiment [5].

Take `CC1(c2ccccc2)OC(=O)C(Cl)(Cl)C(C(Cl)(Cl)Cl)N1OC(=O)Nc1cccc(Cl)c1` (stereo not shown) [Compound 13]: the pest or weed control at 250 µg/mL in experiment [5] came out at 89%. Also, the “% Control” value in experiment [3] (100 ppm) was 73%.

As for `CC1(C)OC(=O)C(Cl)(Cl)C(C(Cl)(Cl)Cl)N1OC(=O)Nc1ccc(Cl)cc1` (stereo not shown) [Compound 14], the pest or weed control at 250 µg/mL in experiment [1] was 27%.

In the case of `O=C(Nc1cccc(Cl)c1)ON1C(C(Cl)(Cl)Cl)C(Cl)(Cl)C(=O)OC1(c1ccccc1)c1ccccc1` (stereo not shown) [Compound 15], in experiment [1], the pest or weed control at 250 µg/mL amounted to 51%. In experiment [2], the “% Control” value worked out at 11%.

Regarding `O=C(Nc1ccc(Cl)cc1)ON1C(C(Cl)(Cl)Cl)C(Cl)(Cl)C(=O)OC1(c1ccccc1)c1ccccc1` (stereo not shown) [Compound 16], the pest or weed control at 250 µg/mL in experiment [1] was found to be 68%.

For the compound `COc1ccc(NC(=O)ON2C(C(Cl)(Cl)Cl)C(Cl)(Cl)C(=O)OC2(C)C)cc1` (stereo not shown) [Compound 18], the pest or weed control at 250 µg/mL in experiment [5] was 95%.

With `Cc1cccc(C)c1NC(=O)ON1C(C(Cl)(Cl)Cl)C(Cl)(Cl)C(=O)OC1(C)C` (stereo not shown) [Compound 21], the pest or weed control at 250 µg/mL in experiment [5] came out at 88%.

As to `CC1(C)OC(=O)CC(C(Cl)(Cl)Cl)N1OC(=O)Nc1ccc(Cl)cc1` (stereo not shown) [Compound 24], the “% Control” value in experiment [2] is 75%.

Turning to `CC(C)C1(C)OC(=O)C(Cl)(Cl)C(C(Cl)(Cl)Cl)N1OC(=O)Nc1ccccc1` (stereo not shown) [Compound 27], in experiment [5], the pest or weed control at 250 µg/mL was found to be 92%.

`CC(C)C1(C)OC(=O)CC(C(Cl)(Cl)Cl)N1OC(=O)Nc1ccc(Cl)c(Cl)c1` (stereo not shown) [Compound 28]: the pest or weed control at 250 µg/mL in experiment [5] was determined as 23%.

For the compound `CCC1(C)OC(=O)CC(C(Cl)(Cl)Cl)N1OC(=O)Nc1ccc(Cl)cc1` (stereo not shown) [Compound 31], the “% Control” value in experiment [6] stood at 64%. Also, the values for the pest or weed control at 250 µg/mL in experiment [1] and in experiment [5] were 39% and 27%, respectively.

Regarding `CC(C)C1(C)OC(=O)CC(C(Cl)(Cl)Cl)N1OC(=O)Nc1ccc(Cl)cc1` (stereo not shown) [Compound 32], the pest or weed control at 250 µg/mL turned out to be 23% in experiment [1] and 56% in experiment [5]. Besides, the “% Control” value in experiment [2] turned out to be 100%.

Regarding `Cc1ccc(NC(=O)ON2C(C(Cl)(Cl)Cl)CC(=O)OC2(C)C)cc1` (stereo not shown) [Compound 33], the “% Control” value in experiment [2] was found to be 96%. Further, the pest or weed control at 250 µg/mL in experiment [5] was 21%.
